Test: method code SF-AS, from DOI: 10.1016/0223-5234(92)90053-4
Work on `O=C(CCCNCCO)c1cccs1` yielded a logP of 2.89. For `CN(CCO)CCCC(=O)c1cccs1`, the logP was 3.29. Work on `CC(O)CNCCCC(=O)c1ccccc1` (configuration not stated) yielded a logP of 3.28. Work on `O=C(CCCNCCO)c1ccccc1` yielded a logP of 2.41. For `O=C(CCCNCCO)C1CCCCC1`, the logP was 3.96. In the case of `Cc1ccsc1C(=O)CCCNCCO`, the logP is reported as 3. `CC(O)CNCCCC(=O)Cc1ccccc1` (configuration not stated) showed a logP of 2.53. In the case of `CC(O)CNCCCC(=O)c1cccs1` (configuration not stated), the logP is reported as 2.73. Compound `CCN(CC)CCCC(=O)c1ccccc1` has a logP of 3.79. `CN(CCO)CCCC(=O)c1ccccc1` gave a logP of 2.4. In the case of `CN(CCO)CCCC(=O)Cc1ccccc1`, the logP is reported as 3.07. `NCCNCCCC(=O)c1ccccc1` gave a logP of 2.74. `Cc1cc(C)c(C(=O)CCCNCCO)c(C)c1` showed a logP of 3.16. `CCc1ccccc1C(=O)CCCNCCO` showed a logP of 3.85. `NCCNCCCC(=O)c1cccs1` gave a logP of 2.58. In the case of `O=C(CCCNCCO)Cc1ccccc1`, the logP is reported as 3.03. Work on `Cc1ccccc1C(=O)CCCNCCO` yielded a logP of 3.61.
